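Five compound concentrations were applied to cells in 96-well plates for 48 hours; endpoints were derived by simple linear interpolation of the resulting dose-response curve. Here, GI50 denotes the concentration required for 50% inhibition of growth. TGI: concentration producing complete growth inhibition.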
Columns and labels:
Test in all cases: inhibition of tumour cell growth, NCI panel, 48 h
SK-OV-3 ovarian = test system: SK-OV-3 ovarian
COLO 205 colon = test system: COLO 205 colon
M14 melanoma = test system: M14 melanoma
SR leukemia = test system: SR leukemia
MCF7 breast = test system: MCF7 breast
SNB-75 CNS = test system: SNB-75 CNS
MDA-MB-435 = test system: MDA-MB-435
NCI-H226 lung = test system: NCI-H226 lung
DU-145 prostate = test system: DU-145 prostate
OVCAR-3 ovarian = test system: OVCAR-3 ovarian
SF-539 CNS = test system: SF-539 CNS
SW-620 colon = test system: SW-620 colon
OVCAR-4 ovarian = test system: OVCAR-4 ovarian
T-47D breast = test system: T-47D breast
SF-268 CNS = test system: SF-268 CNS
CAKI-1 renal = test system: CAKI-1 renal
HOP-62 NSCLC = test system: HOP-62 NSCLC
NCI-H460 lung = test system: NCI-H460 lung
PC-3 prostate = test system: PC-3 prostate
HT29 colon = test system: HT29 colon
NCI-H23 lung = test system: NCI-H23 lung
U251 CNS = test system: U251 CNS
K-562 leukemia = test system: K-562 leukemia
IGROV1 ovarian = test system: IGROV1 ovarian
RPMI-8226 leukemia = test system: RPMI-8226 leukemia
A549 NSCLC = test system: A549 NSCLC
UACC-62 melanoma = test system: UACC-62 melanoma
786-0 renal = test system: 786-0 renal
ACHN renal = test system: ACHN renal
SNB-19 CNS = test system: SNB-19 CNS
BT-549 breast = test system: BT-549 breast
LOX IMVI melanoma = test system: LOX IMVI melanoma
OVCAR-8 ovarian = test system: OVCAR-8 ovarian
HOP-92 NSCLC = test system: HOP-92 NSCLC
HCT-15 colon = test system: HCT-15 colon
SF-295 CNS = test system: SF-295 CNS
HCT-116 colon = test system: HCT-116 colon
EKVX NSCLC = test system: EKVX NSCLC
UO-31 renal = test system: UO-31 renal
RXF 393 renal = test system: RXF 393 renal
TK-10 renal = test system: TK-10 renal
NCI/ADR-RES ovarian = test system: NCI/ADR-RES ovarian
HL-60(TB) leukemia = test system: HL-60(TB) leukemia
NCI-H522 lung = test system: NCI-H522 lung
SK-MEL-28 melanoma = test system: SK-MEL-28 melanoma
MOLT-4 leukemia = test system: MOLT-4 leukemia
MDA-MB-231 breast = test system: MDA-MB-231 breast
A498 renal = test system: A498 renal
SN12C renal = test system: SN12C renal
KM12 colon = test system: KM12 colon
HCC-2998 colon = test system: HCC-2998 colon
UACC-257 melanoma = test system: UACC-257 melanoma
HS 578T breast = test system: HS 578T breast
SK-MEL-2 melanoma = test system: SK-MEL-2 melanoma
CCRF-CEM leukemia = test system: CCRF-CEM leukemia
OVCAR-5 ovarian = test system: OVCAR-5 ovarian
MALME-3M melanoma = test system: MALME-3M melanoma
SK-MEL-5 melanoma = test system: SK-MEL-5 melanoma

`Cc1ccc(-c2c(C#N)[n+](=O)c3cc(Cl)c(Cl)cc3n2[O-])cc1` showed a GI50 (SK-OV-3 ovarian) of 21.6 µM, a TGI (SK-OV-3 ovarian) of 47.1 µM and a GI50 (COLO 205 colon) of 8.97 µM. The TGI (COLO 205 colon) was 24.2 µM, the GI50 (M14 melanoma) was 4.95 µM and the TGI (M14 melanoma) was 19.2 µM. For the same molecule, the GI50 (SR leukemia) was 2130 nM, the TGI (SR leukemia) was greater than 100 µM and the GI50 (MCF7 breast) was 13.6 µM. It also gave a TGI (MCF7 breast) of 34.9 µM, a GI50 (SNB-75 CNS) of 18.2 µM and a TGI (SNB-75 CNS) of 38.2 µM. For the same molecule, the GI50 (MDA-MB-435) was 17.2 µM, the TGI (MDA-MB-435) was 35.2 µM and the GI50 (NCI-H226 lung) was 40.4 µM. The TGI (NCI-H226 lung) was greater than 100 µM, the GI50 (DU-145 prostate) was 17 µM and the TGI (DU-145 prostate) was 33.2 µM. It also gave a GI50 (OVCAR-3 ovarian) of 8.29 µM, a TGI (OVCAR-3 ovarian) of 23.5 µM and a GI50 (SF-539 CNS) of 16.1 µM. The TGI (SF-539 CNS) was 35 µM, the GI50 (SW-620 colon) was 5.08 µM and the TGI (SW-620 colon) was 11.8 µM. For the same molecule, the GI50 (OVCAR-4 ovarian) was 10.8 µM, the TGI (OVCAR-4 ovarian) was 30.4 µM and the GI50 (T-47D breast) was 5.98 µM. It also gave a TGI (T-47D breast) of 16.3 µM, a GI50 (SF-268 CNS) of 5.16 µM and a TGI (SF-268 CNS) of 18 µM. For the same molecule, the GI50 (CAKI-1 renal) was 16.9 µM, the TGI (CAKI-1 renal) was 32.2 µM and the GI50 (HOP-62 NSCLC) was 10.3 µM. It also gave a TGI (HOP-62 NSCLC) of 26.7 µM, a GI50 (NCI-H460 lung) of 20 µM and a TGI (NCI-H460 lung) of 41.3 µM. It also gave a GI50 (PC-3 prostate) of 6.88 µM, a TGI (PC-3 prostate) of 18.5 µM and a GI50 (HT29 colon) of 2940 nM. It also gave a TGI (HT29 colon) of 11 µM, a GI50 (NCI-H23 lung) of 5.46 µM and a TGI (NCI-H23 lung) of 13.1 µM. It also gave a GI50 (U251 CNS) of 34.6 µM, a TGI (U251 CNS) greater than 100 µM and a GI50 (K-562 leukemia) of 2560 nM. For the same molecule, the GI50 (IGROV1 ovarian) was 3.41 µM, the TGI (IGROV1 ovarian) was greater than 36.9 µM and the GI50 (RPMI-8226 leukemia) was 4.76 µM. For the same molecule, the TGI (RPMI-8226 leukemia) was 16.7 µM, the GI50 (A549 NSCLC) was 8.32 µM and the TGI (A549 NSCLC) was 23.3 µM. It also gave a GI50 (UACC-62 melanoma) greater than 47 µM, a TGI (UACC-62 melanoma) greater than 69.4 µM and a GI50 (786-0 renal) of 13.4 µM. The TGI (786-0 renal) was 30.1 µM, the GI50 (ACHN renal) was 5.27 µM and the GI50 (SNB-19 CNS) was 14.4 µM. For the same molecule, the TGI (SNB-19 CNS) was greater than 47.1 µM, the GI50 (BT-549 breast) was 16.1 µM and the TGI (BT-549 breast) was 35.5 µM. For the same molecule, the GI50 (LOX IMVI melanoma) was 27.1 µM, the TGI (LOX IMVI melanoma) was greater than 100 µM and the GI50 (OVCAR-8 ovarian) was 7.39 µM. It also gave a TGI (OVCAR-8 ovarian) of 23.1 µM, a GI50 (HOP-92 NSCLC) of 6 µM and a TGI (HOP-92 NSCLC) of 13.7 µM. It also gave a GI50 (HCT-15 colon) of 29.9 µM, a TGI (HCT-15 colon) greater than 100 µM and a GI50 (SF-295 CNS) of 19.4 µM. It also gave a TGI (SF-295 CNS) of 37.9 µM, a GI50 (HCT-116 colon) of 2160 nM and a GI50 (EKVX NSCLC) of 21.5 µM. For the same molecule, the TGI (EKVX NSCLC) was 45.4 µM, the GI50 (UO-31 renal) was 13.6 µM and the TGI (UO-31 renal) was 35.7 µM. For the same molecule, the GI50 (RXF 393 renal) was 5.53 µM, the TGI (RXF 393 renal) was 12.6 µM and the GI50 (TK-10 renal) was 16.7 µM. It also gave a TGI (TK-10 renal) of 32.9 µM, a GI50 (NCI/ADR-RES ovarian) of 5.86 µM and a TGI (NCI/ADR-RES ovarian) of 17.3 µM. For the same molecule, the GI50 (HL-60(TB) leukemia) was 2500 nM, the TGI (HL-60(TB) leukemia) was greater than 100 µM and the GI50 (NCI-H522 lung) was 12.9 µM. It also gave a TGI (NCI-H522 lung) greater than 67.4 µM, a GI50 (SK-MEL-28 melanoma) of 3.98 µM and a TGI (SK-MEL-28 melanoma) of 13.5 µM. For the same molecule, the GI50 (MOLT-4 leukemia) was 1550 nM, the TGI (MOLT-4 leukemia) was 3.41 µM and the GI50 (MDA-MB-231 breast) was 3.49 µM. For the same molecule, the GI50 (A498 renal) was 16.3 µM, the TGI (A498 renal) was 30.4 µM and the GI50 (SN12C renal) was 30.5 µM. The TGI (SN12C renal) was 85.6 µM, the GI50 (KM12 colon) was 6.05 µM and the TGI (KM12 colon) was 26.6 µM. The GI50 (HCC-2998 colon) was 4.76 µM, the TGI (HCC-2998 colon) was 11.6 µM and the GI50 (UACC-257 melanoma) was 4.89 µM. It also gave a TGI (UACC-257 melanoma) of 9.77 µM, a GI50 (HS 578T breast) of 10.3 µM and a TGI (HS 578T breast) of 48.9 µM. It also gave a GI50 (SK-MEL-2 melanoma) of 17.3 µM, a TGI (SK-MEL-2 melanoma) of 34.7 µM and a GI50 (CCRF-CEM leukemia) of 2950 nM. The TGI (CCRF-CEM leukemia) was 15.6 µM, the GI50 (OVCAR-5 ovarian) was 6.02 µM and the TGI (OVCAR-5 ovarian) was 14.7 µM. For the same molecule, the GI50 (MALME-3M melanoma) was 7 µM, the TGI (MALME-3M melanoma) was 25.2 µM and the GI50 (SK-MEL-5 melanoma) was 13.9 µM. The TGI (SK-MEL-5 melanoma) was 27.2 µM.

— PubChem BioAssay (NCI)
